Data as given in patent publication US20210317092A1 (BAYER PHARMA AKTIENGESELLSCHAFT, priority 2016, published 2021).

Legend:
[1] = cited from earlier work
[2] = cited from earlier work; remark: listed apart in the source
[3] = cited from earlier work; remark: listed apart in the source
[4] = biological target: T1, human Bradykinin B1 receptor (Homo sapiens, UniProt P46663); assay: Calcium flux Assay (FLIPR) with recombinant CHO-K1 cells expressing human Bradykinin B1 receptor, in presence (hB1 IC50) or absence (hB1 free IC50) of 0.1% BSA; type: cell-based; conditions: in absence of 0.1% BSA, read-out: hB1 free IC50
T1 construct: host or cells: CHO-K1
T1 sequence (P46663 1-353): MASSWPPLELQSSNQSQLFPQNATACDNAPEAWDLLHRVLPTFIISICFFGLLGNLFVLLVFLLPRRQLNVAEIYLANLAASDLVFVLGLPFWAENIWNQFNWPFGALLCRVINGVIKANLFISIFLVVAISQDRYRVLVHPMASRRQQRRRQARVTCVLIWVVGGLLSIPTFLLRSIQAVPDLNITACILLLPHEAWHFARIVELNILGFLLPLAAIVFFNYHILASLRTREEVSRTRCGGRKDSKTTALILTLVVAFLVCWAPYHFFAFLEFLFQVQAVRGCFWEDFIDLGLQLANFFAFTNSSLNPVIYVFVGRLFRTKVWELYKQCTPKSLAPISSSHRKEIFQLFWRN

[5] = system: IL-6 secretion; assay: Inhibitory activity on Bradykinin B1 agonist-induced secretion of IL-6 in human IMR-90 cells; type: cell-based; conditions: 30 min compound, stimulated with 0.1 μM Lys-[Des-Arg9]Bradykinin and 0.1 μM Sar-[D-Phe8]-des-Arg9-Bradykinin for 5 hours
Source text: (§1) Inhibitory activity on Bradykinin B1 agonist-induced secretion of IL-6 and IL-8 in human IMR-90 cells
(§2) The effect of the compound examples on secretion of the cytokine IL-6 and IL-8 has been investigated in the human foetal lung fibroblast IMR-90 cell line. Here the induction of the cytokine secretion was induced by the Bradykinin B1 agonists Lys-[Des-Arg9]Bradykinin (CAS 71800-36-7, Tocris Bioscience) and Sar-[D-Phe8]-des-Arg9-Bradykinin (CAS 126959-88-4, Tocris Bioscience) leading to the activation of the Bradykinin B1-driven signalling pathway. This effect is indicative for a strong anti-inflammatory mode of action in kinin driven inflammation.
(§3) IMR-90 cells were cultured in Eagle's Minimum Essential Medium (EMEM) containing 2 mM L-glutamine, 1 g/L glucose, 1.5 g/L NaHCO3, 1 mM sodium pyruvate and non-essential amino acids (ATCC, 30-2003™) supplemented with 10% FBS (Biochrom, S0615) and 50 U/mL Penicillin, 50 μg/mL Streptomycin (PAA, P11-010). The assay was performed in EMEM and a cell density of […] IMR-90 cells/96-well. The compound examples have been serial diluted in 100% DMSO and evaluated at 8 different concentrations within the range of 3 nM and 10 μM and a final DMSO concentration of 0.4%. The IMR-90 cells have been incubated with the respective concentration of the compound for 30 min. The enhanced secretion of IL-6 and IL-8 was induced by the stimulation of these cells with 0.1 μM Lys-[Des-Arg9]Bradykinin (Tocris, catalogue no. 3225) and 0.1 μM Sar-[D-Phe8]-des-Arg9-Bradykinin (Tocris, catalogue no. 3230) for 5 hours at 37° C. and 5% C02. Further, cells have been treated with Lys-[Des-Arg9]Bradykinin and Sar-[D-Phe8]-des-Arg9-Bradykinin as neutral control and with 0.1% DMSO as inhibitor control. The amount of IL-6 and IL-8 in the supernatant was determined using the Human Prolnflammatory Panel II (4-Plex) (MSD, K15025B) according to manufacturer's instruction. Briefly, supernatants were added onto assay plates and incubated at room temperature for 1-2 h with vigorous shaking at 600 rpm. Detection antibodies were then added onto the supernatants and incubated at room temperature for an additional 1-2 h with vigorous shaking at 600 rpm. Plates were washed three times with phosphate-buffered saline (PBS; 137 mM NaCl, 2.7 mM KCl, 6.5 mM Na2HPO4, 1.7 mM KH2P04) containing 0.05% Tween-20 (Bio-Rad, 161-0781) and electrochemiluminescence detected using the MSD Sector Imager 6000 plate reader. The cell viability was measured using the CellTiter-Glo Luminescent Assay (Promega, G7571) following the manufacturers protocol. Briefly, the CellTiter-Glo Reagent was diluted with PBS (1:1) and added directly to cells. After incubation and shaking for 10 minutes luminescent signal was measured which is proportional to the amount of ATP present.
(§4) The effect of the compound on the amount of secreted cytokine has been calculated as 100/(measured cytokine concentration of neutral control-measured cytokine concentration of inhibitor control)*(measured cytokine concentration of compound dose-measured cytokine concentration of inhibitor control). IC50 values are determined using 4-parameter-fit.
(§5) The compound examples were tested in triplicates per plate and the inhibitory activity was determined as the relation between neutral and inhibitor control in percent. IC50 values were calculated using the 4-parameter logistic model.

[6] = system: IL-8 secretion; assay: Inhibitory activity on Bradykinin B1 agonist-induced secretion of IL-8 in human IMR-90 cells; type: cell-based; conditions: 30 min compound, stimulated with 0.1 μM Lys-[Des-Arg9]Bradykinin and 0.1 μM Sar-[D-Phe8]-des-Arg9-Bradykinin for 5 hours
Source text: as §1, §2, §3, §4, §5

[7] = due to metabolic tability; cited from earlier work

| SMILES | pharmacokinetic profile in rat [1] | human metabolic stability [2] | aqueous solubility [3] | IC50 [4] [nM] | IC50 [5] [nM] | IC50 [6] [nM] | pharmacokinetic profile [7] |
| --- | --- | --- | --- | --- | --- | --- | --- |
| C[C@@H]1CC[C@H](C)N1C(=O)c1ccc([C@@H](C)NC(=O)C2(NC(=O)c3cc(F)cc(C(F)(F)F)c3)CC2)c(F)c1 | reasonable | poor | reasonable |  |  |  |  |
| O=C(Nc1ccc(-n2ccc(CC(F)(F)F)n2)c(-c2nnn[nH]2)c1)C1(c2ccc(C(F)(F)F)cc2F)CC1 [Example 389, 1-[2-fluoro-4-(trifluoromethyl)phenyl]-N-{3-(1H-tetrazol-5-yl)-4-[3-(2,2,2-trifluoroethyl)-1H-pyrazol-1-yl]phenyl}cyclo-propanecarboxa-mide] |  |  |  | 11 | 253 | 258 |  |
| CC(C)(C)c1cn(-c2ccc(NC(=O)C3(c4ccc(OC(F)(F)F)cc4F)CC3)cc2-c2nnn[nH]2)cn1 [Example 404, N-[4-(4-tert-butyl-1H-imidazol-1-yl)-3-(1H-tetrazol-5-yl)phenyl]-1-[2-fluoro-4-(trifluoromethoxy)phenyl]cyclo-propanecarboxa-mide] |  |  |  | 6.36 | 69 | 59 |  |
| C[C@@H](NC(=O)C1(NC(=O)C(F)(F)F)CC1)c1ccc(-c2cccc(Cl)c2C(=O)O)cc1F [MK-0686] |  |  |  |  |  |  | suboptimal |
